# ChEMBL document CHEMBL5500396, “Discovery, Multiparametric Optimization, and Solid-State Driven Identification of CHF-6550, a Novel Soft Dual Pharmacology Muscarinic Antagonist and β2 Agonist (MABA) for the Inhaled Treatment of Respiratory Diseases” (J Med Chem, 2024)
# pIC50, pKi: −log10 of the molar value.
# Molecular target: Muscarinic acetylcholine receptor M3 (Homo sapiens, UniProt P20309)
# Test: not given
# Settings: not given
# Sequence of Muscarinic acetylcholine receptor M3 (Homo sapiens, UniProt P20309) (P20309 whole entry): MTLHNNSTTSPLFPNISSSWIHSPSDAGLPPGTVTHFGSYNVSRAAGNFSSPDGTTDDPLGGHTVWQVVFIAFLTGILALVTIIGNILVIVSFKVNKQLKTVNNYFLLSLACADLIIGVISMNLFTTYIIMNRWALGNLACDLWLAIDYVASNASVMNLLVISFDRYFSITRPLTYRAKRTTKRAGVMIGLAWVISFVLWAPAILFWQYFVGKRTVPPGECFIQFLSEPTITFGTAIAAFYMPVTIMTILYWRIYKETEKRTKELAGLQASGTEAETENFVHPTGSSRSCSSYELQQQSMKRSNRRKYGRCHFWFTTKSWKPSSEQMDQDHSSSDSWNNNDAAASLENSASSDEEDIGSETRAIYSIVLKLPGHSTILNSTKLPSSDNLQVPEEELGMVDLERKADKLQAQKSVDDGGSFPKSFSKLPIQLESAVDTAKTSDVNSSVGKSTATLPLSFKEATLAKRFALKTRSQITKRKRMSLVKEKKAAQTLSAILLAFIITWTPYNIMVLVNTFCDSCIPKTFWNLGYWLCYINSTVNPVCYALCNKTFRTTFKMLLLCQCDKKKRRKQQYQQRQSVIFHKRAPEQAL
row,SMILES,pKi
1,O=C(NCCCCNC[C@H](O)c1ccc(O)c2[nH]c(=O)ccc12)c1ccc(CNC2(C(=O)OCC3CCN(Cc4ccccc4)CC3)CCc3ccccc32)s1 (mixture of isomers; 33),8.70
2,O=C(N[C@@H](c1ccccc1)c1cccc(OCc2cccc(C(=O)NCCCCNC[C@H](O)c3ccc(O)c4[nH]c(=O)ccc34)c2)c1)O[C@H]1CN2CCC1CC2,10.20

# System: Trachea
# Test: Inhibition of carbachol-induced smooth muscle contraction in male albino Dunkin-Hartley guinea pig trachea
# Settings: Cavia porcellus, read-out: pIC50 (converted)
row,SMILES,IC50 [nM]
1,O=C(N[C@@H](c1ccccc1)c1cccc(OCc2cccc(C(=O)NCCCCNC[C@H](O)c3ccc(O)c4[nH]c(=O)ccc34)c2)c1)O[C@H]1CN2CCC1CC2,0.794

# Molecular target: Beta-2 adrenergic receptor (Cavia porcellus, UniProt Q8K4Z4)
# Test: Agonist activity at beta2 adrenoceptor in male albino Dunkin-Hartley guinea pig trachea assessed as inhibition of histamine induced smooth muscle contraction
# Settings: not given
# Sequence of Beta-2 adrenergic receptor (Cavia porcellus, UniProt Q8K4Z4) (Q8K4Z4 whole entry): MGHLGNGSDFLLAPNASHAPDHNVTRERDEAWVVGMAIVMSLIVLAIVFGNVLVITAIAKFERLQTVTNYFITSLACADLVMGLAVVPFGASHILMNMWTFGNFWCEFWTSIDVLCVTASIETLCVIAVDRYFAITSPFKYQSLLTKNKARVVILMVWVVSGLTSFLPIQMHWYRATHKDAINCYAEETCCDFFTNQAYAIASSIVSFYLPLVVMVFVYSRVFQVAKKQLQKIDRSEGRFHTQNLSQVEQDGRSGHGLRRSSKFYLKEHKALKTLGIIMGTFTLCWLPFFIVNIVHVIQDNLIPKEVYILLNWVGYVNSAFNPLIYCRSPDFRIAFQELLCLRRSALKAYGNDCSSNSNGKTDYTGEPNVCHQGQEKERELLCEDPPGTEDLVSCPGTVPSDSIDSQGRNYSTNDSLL
row,SMILES,pIC50
1,O=C(NCCCCNC[C@H](O)c1ccc(O)c2[nH]c(=O)ccc12)c1ccc(CNC2(C(=O)OCC3CCN(Cc4ccccc4)CC3)CCc3ccccc32)s1 (mixture of isomers; 33),10.20
2,O=C(N[C@@H](c1ccccc1)c1cccc(OCc2cccc(C(=O)NCCCCNC[C@H](O)c3ccc(O)c4[nH]c(=O)ccc34)c2)c1)O[C@H]1CN2CCC1CC2,9.00

# Species on record: Cavia porcellus
# Test: animal or person
# Settings: albino Dunkin-Hartley, 1 h, read-out: INH
# Description: Inhibition of acetylcholine induced bronchoconstriction in male albino Dunkin-Hartley guinea pig model at 3 nmol/kg, IT(Intratracheal) preadministered with compound followed by acetylcholine addition at 5 to 30 mins in presence of ICI-118551 and measured 1 hrs post compound treatment relative to control
row,SMILES,inhibition in vivo at 0.003 µmol/kg [%]
1,O=C(NCCCCNC[C@H](O)c1ccc(O)c2[nH]c(=O)ccc12)c1ccc(CNC2(C(=O)OCC3CCN(Cc4ccccc4)CC3)CCc3ccccc32)s1 (mixture of isomers; 33),60

# Molecular target: Muscarinic acetylcholine receptor M3 (Cavia porcellus, UniProt Q8VH26)
# Test: Antagonist activity at M3 receptor in male albino Dunkin-Hartley guinea pig trachea assessed as inhibition of carbachol-induced smooth muscle contraction in presence of propranolol
# Settings: not given
# Sequence of Muscarinic acetylcholine receptor M3 (Cavia porcellus, UniProt Q8VH26) (Q8VH26 whole entry): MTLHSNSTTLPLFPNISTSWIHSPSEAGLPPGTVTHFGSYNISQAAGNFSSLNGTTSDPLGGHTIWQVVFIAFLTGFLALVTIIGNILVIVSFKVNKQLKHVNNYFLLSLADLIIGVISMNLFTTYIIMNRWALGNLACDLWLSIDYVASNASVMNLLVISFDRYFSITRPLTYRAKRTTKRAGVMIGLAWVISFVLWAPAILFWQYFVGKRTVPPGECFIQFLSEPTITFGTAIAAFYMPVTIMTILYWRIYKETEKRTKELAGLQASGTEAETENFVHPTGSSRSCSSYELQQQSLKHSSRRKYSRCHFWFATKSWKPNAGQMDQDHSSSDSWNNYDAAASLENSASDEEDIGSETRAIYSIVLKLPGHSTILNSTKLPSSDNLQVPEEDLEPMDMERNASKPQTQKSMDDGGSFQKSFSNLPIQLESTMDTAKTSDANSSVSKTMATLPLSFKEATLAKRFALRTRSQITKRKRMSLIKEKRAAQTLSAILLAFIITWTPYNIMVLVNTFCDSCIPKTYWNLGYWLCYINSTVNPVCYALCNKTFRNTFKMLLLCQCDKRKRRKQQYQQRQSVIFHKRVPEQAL
row,SMILES,pIC50
1,O=C(NCCCCNC[C@H](O)c1ccc(O)c2[nH]c(=O)ccc12)c1ccc(CNC2(C(=O)OCC3CCN(Cc4ccccc4)CC3)CCc3ccccc32)s1 (mixture of isomers; 33),9.10
2,O=C(N[C@@H](c1ccccc1)c1cccc(OCc2cccc(C(=O)NCCCCNC[C@H](O)c3ccc(O)c4[nH]c(=O)ccc34)c2)c1)O[C@H]1CN2CCC1CC2,9.10

# System: Cavia porcellus
# Test: Inhibition of acetylcholine induced bronchoconstriction in male albino Dunkin-Hartley guinea pig model at 3 nmol/kg, IT(Intratracheal) preadministered with compound followed by acetylcholine addition at 5 to 30 mins and measured 1 hrs post compound treatment relative to control
# Settings: read-out: INH
row,SMILES,inhibition in vivo at 0.003 µmol/kg [%]
1,O=C(NCCCCNC[C@H](O)c1ccc(O)c2[nH]c(=O)ccc12)c1ccc(CNC2(C(=O)OCC3CCN(Cc4ccccc4)CC3)CCc3ccccc32)s1 (mixture of isomers; 33),96

# Molecular target: Beta-2 adrenergic receptor (Homo sapiens, UniProt P07550)
# Test: not given
# Settings: not given
# Sequence of Beta-2 adrenergic receptor (Homo sapiens, UniProt P07550) (P07550 whole entry): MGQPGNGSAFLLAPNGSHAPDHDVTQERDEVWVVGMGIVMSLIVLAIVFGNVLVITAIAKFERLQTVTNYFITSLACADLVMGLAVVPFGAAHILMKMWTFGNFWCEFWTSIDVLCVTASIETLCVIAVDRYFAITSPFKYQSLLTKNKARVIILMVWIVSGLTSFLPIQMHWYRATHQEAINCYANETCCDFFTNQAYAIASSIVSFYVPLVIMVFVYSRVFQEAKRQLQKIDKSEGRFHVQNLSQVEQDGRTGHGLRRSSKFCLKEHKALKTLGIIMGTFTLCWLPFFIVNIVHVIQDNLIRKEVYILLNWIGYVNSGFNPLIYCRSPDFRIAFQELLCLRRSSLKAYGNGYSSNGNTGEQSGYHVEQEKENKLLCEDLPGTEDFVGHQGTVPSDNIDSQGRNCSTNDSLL
row,SMILES,pKi
1,O=C(NCCCCNC[C@H](O)c1ccc(O)c2[nH]c(=O)ccc12)c1ccc(CNC2(C(=O)OCC3CCN(Cc4ccccc4)CC3)CCc3ccccc32)s1 (mixture of isomers; 33),10.50
2,O=C(N[C@@H](c1ccccc1)c1cccc(OCc2cccc(C(=O)NCCCCNC[C@H](O)c3ccc(O)c4[nH]c(=O)ccc34)c2)c1)O[C@H]1CN2CCC1CC2,10.90

# System: not listed separately
# Test: Protein binding in human plasma at 5 uM incubated for 4 hrs by LC-MS/MS analysis
# Settings: not given
row,"fraction unbound at 4 h, 5 µM",SMILES
1,0.06,O=C(NCCCCNC[C@H](O)c1ccc(O)c2[nH]c(=O)ccc12)c1ccc(CNC2(C(=O)OCC3CCN(Cc4ccccc4)CC3)CCc3ccccc32)s1 (mixture of isomers; 33)

# System: Cavia porcellus
# Test: Inhibition of histamine induced bronchoconstriction in male albino Dunkin-Hartley guinea pig model at 3 nmol/kg, IT(Intratracheal) preadministered with compound followed by histamine addition at 5 to 30 mins and measured 1 hrs post compound treatment relative to control
# Settings: read-out: INH
row,SMILES,inhibition in vivo at 0.003 µmol/kg [%]
1,O=C(NCCCCNC[C@H](O)c1ccc(O)c2[nH]c(=O)ccc12)c1ccc(CNC2(C(=O)OCC3CCN(Cc4ccccc4)CC3)CCc3ccccc32)s1 (mixture of isomers; 33),83
